Consider six compounds from patent US5191072A, “Lipid A monosaccharide analogues” (priority 1989, dated 1993).

Where two headings read alike, the source gives them in different places.

One data set concerns TNF. Briefly: TNF-producing activity (TNF titer in serum of mice, cytotoxicity assay using L929 cells). It counts as in vivo. To be noted: 10 μg/mouse intravenously, Corynebacterium parvum-primed ICR mouse, serum at 90 minutes; titer = reciprocal of dilution showing 50% cytotoxicity. On the procedure: TNF-producing activity was evaluated utilizing the following experiment system.
The first stimulating agent, 5% Corynebacterium parvum suspension (0.2 ml physiological saline solution) was intravenously administered to ICR mouse (female, 6-7 week-aged). Nine days later, the second stimulating agent, the compound of this invention was intravenously administered to the same mouse at 10 μg/mouse. In 90 minutes, 0.5-1 ml of blood was taken from the retro orbital plexus. The obtained blood was allowed to clot at room temperature for five to six hours, and centrifuged at 7200×g for five minutes to separate serum. The obtained serum was incubated at 56° C. for 30 minutes for inactivation before use in the following experiment.
TNF activity in the serum was measured with cytotoxicity assay using L929 cells. L929 cells were prepared in concentration of 6×10^4 cells/well (0.1 ml) RPMI 1640 medium containing 10% FBS and 2 μg/ml actinomycin D in 96-well plates. Serial dilution of obtained serum in RPMI 1640 medium containing 10% FBS was added to each well in the plate (0.1 ml/well). After a 48 hr incubation at 37° C., the viable cells were fixed with methanol. […] Next, absorbance at 550 nm was measured. Finally, cytotoxicity ratio (%) was calculated according to the following formula, and the reciprocal of dilution of the serum showing 50% cytotoxicity was determined for TNF titer in serum (U/ml). […]

A further data set deals with neutrophils. Briefly: O2^- production stimulating activity in neutrophils. It counts as cell-based, C3 H/HeN mouse. To be noted: Neutrophil, 1 h, read-out: Stimulation %. On the procedure:
O2^- Production Stimulating Activity in Neutrophils
O2^- production stimulating activity in neutrophils was evaluated utilizing the following experimental system [see J. Exp. Med., 160, 1656-1671, 1984]. To the peritoneal cavity of C3 H/HeN mouse (male, 8-9 week-aged), physiological saline containing 0.2% (w/v) casein was administered. Three hours later, peritoneal exudate cells (90% or more of which are neutrophils) were collected. These cells (1.7×10^6 cells/ml/tube) were incubated in the presence of the compound according to this invention (1 μg/ml) at 37° C. for 60 minutes. After addition of 80 μM of cytochrome C and 0.1 μM of formyl-methionyl-leucyl-phenylalanine (FMLP), the mixture was incubated in the presence of or in the absence of Superoxide dismutase (SOD) at 37° C. for 10 minutes. Then, SOD-inhibitable cytochrome C reduction was estimated from the difference between absorbances at 550 nm and 541.7 nm, and from molar absorption coefficient (16.5×10^3). O2^- production-stimulating activity was shown in Stimulation % in the following formula.
Stimulation %=(the amount of O2^- produced in the presence of compounds of the invention)/(the amount of O2^- produced in the absence of compounds of the invention)×100-100

The nature of data set [1]: Lethal toxicity in galactosamine-sensitized mice. As to conditions: galactosamine-sensitized mice; intravenous, C57BL mouse, D-galactosamine/HCl 10 mg/mouse i.p.; observed to seventh day; read-out: LD50 (galactosamine load). It counts as in vivo. On the procedure:
(§1) Lethal Toxicity in Galactosamine-Sensitized Mice
(§2) Lethal toxicity in galactosamin-sensitized mice was evaluated by utilizing the following experiment system [see J.Biochem., 98, 395-406 pp., 1985].
(§3) To C57BL mouse (male, 7-week aged), 10 mg/mouse of D-galactosamine/HCl was intraperitoneally administered. Immediately after that, the compound of this invention was intravenously administered. After these administrations, general conditions of the mouse were observed every one hour for seven hours, and every day from the following day to the seventh day.

A further data set has as its system E.coli. 589 strain. Briefly: Nonspecific protective activity against bacterial infection in immunosuppressed mouse. Type of data set: in vivo. As to conditions: ICR mice, cyclophosphamide 200 mg/kg, E.coli 1.0×10^7 CFU/mouse i.p. As for the experimental part: Nonspecific Protective Activity Against Bacterial Infection in Immunosuppressed Mouse
Protective effect against bacterial infection in immunosuppressed mouse was evaluated by utilizing the following experiment system.
To a group of ten ICR mice (male, 5-week aged), cyclophosphamide (200 mg/kg) was intraperitoneally administered. Three days later, the compound of this invention was also intraperitoneally administered. Twenty four hours later, E.coli. 589 strain, was intraperitoneally inoculated at 1.0×10^7 CFU/mouse. The protective activities against infection was evaluated from survival rate (%) of mice after six days of bacterial infection.

For data set [2], the system named is galactosamine-sensitized mice. In words: Lethal toxicity in galactosamine-sensitized mice. It counts as in vivo. As to conditions: intravenous, C57BL mouse, D-galactosamine/HCl 10 mg/mouse i.p.; observed to seventh day; 10080 min. As for the experimental part:
as §1, §2, §3

The mark [3] stands for this setting: compound 1 μg/ml, 37° C., 60 minutes, 0.1 μM FMLP, mouse peritoneal exudate cells.

As to `CCCCCCCCCCCCC(CCCCCCCCCCC)CC(=O)O[C@H]1[C@H](OP(=O)(O)O)[C@@H](CO)OC(O)[C@@H]1NC(=O)C[C@H](O)CCCCCCCCCCC` (mixture of isomers) [Compound 46, 2-deoxy-2-[(3R)-3-hydroxytetradecanamido]-4-O-phosphono-3-O-[(3RS)-3-undecylpentadecanoyl]-D-glucopyranose], the “the amount of the TNF in serum” value in the data set with TNF came out at 292354 U/ml.

As to `CCCCCCCCCCCCCCC(CCCCCCCCCCC)CC(=O)O[C@H]1[C@H](OP(=O)(O)O)[C@@H](CO)OC(O)[C@@H]1NC(=O)C[C@H](O)CCCCCCCCCCC` (mixture of isomers) [Compound 47, 2-deoxy-2-[(3R)-3-hydroxytetradecanamido]-4-O-phosphono-3-O-[(3RS)-3-undecylheptadecanoyl]-D-glucopyranose], the activation at 1 µg/mL in the data set with neutrophils (setting [3]) was found to be 73%.

As to `CCCCCCCCCCCCCCCCC(CCCCCCCCCCC)CC(=O)O[C@H]1[C@H](OP(=O)(O)O)[C@@H](CO)OC(O)[C@@H]1NC(=O)C[C@H](O)CCCCCCCCCCC` (mixture of isomers) [Compound 48, 2-deoxy-2-[(3R)-3-hydroxytetradecanamido]-4-O-phosphono-3-O-[(3RS)-3-undecylnonadecanoyl]-D-glucopyranose], the activation at 1 µg/mL in the data set with neutrophils (setting [3]) was found to be 69%.

The LD50 is the dose expected to kill half of the subjects tested. For `CCCCCCCCCCCCCCC(CCCCCCCCCCC)CC(=O)O[C@H]1[C@H](OP(=O)(O)O)[C@@H](CO)OC[C@@H]1NC(=O)C[C@H](O)CCCCCCCCCCC` (stereo partly shown) [Compound 47*], in data set [1], the LD50 at 168 h was 11.8 µg/kg. In addition, the activation at 1 µg/mL in the data set on neutrophils (Mus musculus) was determined as 111%.

For the compound `CCCCCCCCCCCCCC(=O)OC(CCCCCCCCCCC)CC(=O)O[C@H]1[C@H](OP(=O)(O)O)[C@@H](CO)OC(O)[C@@H]1NC(=O)CC(O)CCCCCCCCCCC` (stereo partly drawn) [GLA60, 2-deoxy-2-(3-hydroxytetradecanaymidno)-4-0-phosphorno-3-0-[(3-O-tetradecanoyl)-tetradecanoyl]-D-glucopyranose], the median lethal dose (LD50) at 168 h in data set [1] is 3 µg/kg. Besides, the “the amount of the TNF in serum” value with TNF amounted to 216809 U/ml. Besides, the activation at 1 µg/mL in the data set on neutrophils (Mus musculus) came out at 71%. Moreover, the “survival rate of mice after six days of infection” value in the data set with E.coli. 589 strain (0.005 mg/kg i.p.) was found to be 33%; in the data set on E.coli. 589 strain (0.05 mg/kg i.p.), 43%; in the data set on E.coli. 589 strain (0.5 mg/kg i.p.), 70%.

Turning to `CCCCCCCCCCCCCC(=O)OC(CCCCCCCCCCC)CC(=O)NC1C(OCC2OC(OP(=O)(O)O)C(NC(=O)CC(O)CCCCCCCCCCC)C(OC(=O)CC(O)CCCCCCCCCCC)C2O)OC(CO)C(OP(=O)(O)O)C1OC(=O)CC(CCCCCCCCCCC)OC(=O)CCCCCCCCCCCCC` (stereo not shown) [Lipid A], the “LD50 (galactosamine load)” value in data set [2] was determined as 0.3 µg/kg. Further, the “survival rate of mice after six days of infection” value in the data set on E.coli. 589 strain (0.05 mg/kg i.p.) was 75%.
